Experimental data from US20220348885A1, “BIOLOGICALLY RELEVANT IN VITRO SCREENING OF HUMAN NEURONS” (The Board of Trustees of the Leland Stanford Junior …, priority 2016, published 2022).
Entries after “also recorded” stand apart in the source; their conditions may differ.

Legend:
[1] = test system: neural co-cultures consisting of primary human glial cells and a mixture of glutamatergic excitatory iN cells and GABAergic inhibitory iN cells; test: Bicuculline-induced seizure-like network activity on MEA and co-application of antiepileptic drugs (Example 7); type: cell-based; details: co-application with 1 μM bicuculline, 3 doses
Experimental: Generation of human neural co-cultures and MEA recording settings and thresholds were as described under Example 6. […] Co-application of AEDs was performed in 3 different doses and each condition was tested in 6 technical replicates.

[2] = test system: neural co-cultures consisting of primary glial cells and glutamatergic excitatory iN cells; test: MEA recording of neuronal network activity, pure excitatory co-culture (Example 3); type: cell-based, human; details: for decrease of the frequency of total bursts / decrease of the frequency of total spikes (mean firing rate): dosed vs baseline
Experimental: Induced excitatory neurons were seeded at day 4 after induction by transcriptional activation of the neurogenic transcription factor NGN2, on 12-well MEA plates (Axion BioSystems) coated with matrigel. A total of 600,000 iN cells were plated per well. Primary glial cells were obtained by dissociating brains of mouse pups at postnatal day 3 with hippocampal and cerebellar structures being removed in advance. Dissociated brains were pre-cultured and passaged twice to remove primary neurons. Glial cells were then seeded directly on the plated iN cells at a density of 120,000 cells per well.
Recordings of spontaneous neuronal activity were performed at 1, 2, 3, and 4 weeks after plating for a period of 10 minutes each.
Neural co-cultures were produced as described under Example 1. […] Recordings were performed at week 4 in culture for 10 minutes for each condition including baseline measurements prior to compound application and test measurements following the addition of a single compound. Between baseline and test condition recordings, the plates were store in an incubator (37° C., 5% CO2) to readjust pH of the media. Each compound was applied to a different well in order to prevent secondary effects of previous treatments. First, the effect of the common compound solvent DMSO was tested by adding 0.1% to the neural co-culture medium. As depicted in FIG. 6A i and ii, DMSO alone increased the frequency of total spikes (mean firing rate) and the frequency of total bursts by 0.2 Hz and 0.018 Hz, respectively. Moreover, a minor increase in synchrony could be detected increasing the percentage of bursts within synchronized network activity by approximately 5%.

[3] = test system: neural co-cultures with a stronger inhibitory component (excitatory/inhibitory iN cells 50%/50%, glial cells from human primary NSCs); test: MEA recording of neuronal network activity, mixed excitatory/inhibitory co-culture approx. 50%/50% with human glial cells (Example 4, second experiment); type: cell-based; details: 50 μM, excitatory/inhibitory approx. 50%/50%, 4 weeks in culture
Experimental: In a second experiment, the effect of PTX on synchronized neuronal network activity in neural co-cultures with a stronger inhibitory component was assessed. For this purpose, a total of 100,000 excitatory iN cells and 300,000 inhibitory iN cells were plated simultaneously per well on 12-well MEA plates (Axion BioSystems) coated with matrigel. Glial cells were derived from human primary NSCs as described above and seeded directly on the plated iN cells at a density of 100,000 cells per well. Due to the different apoptosis rates of the two iN cells types mentioned earlier, the final ratio of excitatory/inhibitory neurons after 4 weeks in culture was approximately 50%/50%.
The effect of PTX was tested by adding a final concentration of 50 μM to the neural co-culture medium.

[4] = test system: neural co-cultures consisting of primary glial cells and a mixture of glutamatergic excitatory iN cells and GABAergic inhibitory iN cells; test: MEA recording of neuronal network activity, mixed excitatory/inhibitory co-culture approx. 70%/30% (Example 4); type: cell-based, human; details: 50 μM, excitatory/inhibitory approx. 70%/30%
Experimental: Induced excitatory neurons were seeded at day 4 and induced inhibitory neurons were seeded at day 6 after induction. A total of 200000 excitatory iN cells and 200000 inhibitory iN cells were plated simultaneously per well on 12-well MEA plates (Axion BioSystems) coated with matrigel. Primary glial cells were obtained as described in Example 1, and seeded directly on the plated iN cells at a density of 100000 cells per well.
Neural co-cultures were produced as described under Example 2 resulting in excitatory/inhibitory iN cell ratio of approximately 70%/30%. Recordings of neuronal activity, threshold values, and the procedure of measuring baseline and test conditions were performed as described under Example 3. Here, the effect of PTX was tested by adding a final concentration of 50 μM to the neural co-culture medium.

Nc1nnc(-c2cccc(Cl)c2Cl)c(N)n1 [lamotrigine]
mean firing rate, network burst duration, and synchrony [1]: to baseline level (solvent control), or further reduced; also recorded: dose-dependent decrease

O=C1NC(=O)C(c2ccccc2)(c2ccccc2)N1 [phenytoin]
mean firing rate, network burst duration, and synchrony [1]: to baseline level (solvent control), or further reduced; also recorded: dose-dependent decrease

N#Cc1cc2[nH]c(=O)c(=O)[nH]c2cc1[N+](=O)[O-] [CNQX]
occurrence of synchronized network activity ([2]; 20 μM, week 4 in culture): completely abolished | decrease of the frequency of total bursts ([2]; 20 μM, week 4 in culture): 0.005 Hz | decrease of the frequency of total spikes (mean firing rate) ([2]; 20 μM, week 4 in culture): 0.4 Hz

picrotoxin [PTX]
change in spike and burst frequencies and synchronized network activity ([2]; 50 μM in 0.1% DMSO, pure excitatory culture without GABAergic cells): largely corresponded to the changes observed upon application of 0.1% DMSO | synchronized network burst pattern [3]: extended synchronized bursts with shortening inter-burst intervals | increase of synchrony of network bursts [4]: ~60% | spike and burst frequencies [4]: increase

NC(CCCP(=O)(O)O)C(=O)O (stereo not shown) [AP5]
reduction of the average duration of bursts ([2]; 50 μM, week 4 in culture): about 30% | synchronized network activity as measured by network burst percentage ([2]; 50 μM, week 4 in culture): reduced | decrease of the frequency of total bursts ([2]; 50 μM, week 4 in culture): 0.004 Hz | decrease of the frequency of total spikes (mean firing rate) ([2]; 50 μM, week 4 in culture): 0.2 Hz
